Data taken from patent US20120004314A1, “ANTIMICROBIAL COMPOSITION” (AMBRIA DERMATOLOGY AB, priority 2008, published 2012).
Marks after values point to notes of the source that are not given here.

Tests used:
Format in all cases: cell-based
P. acnes (CCUG 1794) = test: MIC by agar dilution assay, P. acnes
Experimental: (§1) Chlorhexidine digluconate (CHG) solution, 20% water, […]-25ML, (Sigma, St. Louis, USA) and PD, (BASF AG, Ludwigshafen, Germany) were used in the study and the following reference strains were tested; C. albicans (CCUG 5594), S. aureus (CCUG 17621) and P. acnes (CCUG 1794). Minimum inhibitory concentration of CHG and pentane-1,5-diol (PD) were determined by agar dilution assay. A series of dilutions of each compound were prepared in blood agar medium for P. acnes, and in Diagnostic Sensitivity Test (DST) agar (Oxoid, Basingstoke, UK) for C. albicans and S. aureus. Dilution series with each agent were made with freshly prepared agar at 48-50° C. Final concentration ranges were as follows: CHG solution, 0.00001 to 1% (w/v) and PD, 1-30% (v/v). The prepared plates were solidified and used immediately. For each organism an inoculum was prepared by growing organisms on blood agar. Colonies were suspended in phosphate-buffered saline (PBS) and suspensions were adjusted to approximately 6×10^6 CFU/ml for C. albicans and P. acnes and 6×10^5 CFU/mL for S. aureus. The plates were inoculated with 20 μl spots and incubated for one day for C. albicans and S. aureus and three days for P. acnes. MICs were then determined as the lowest concentration of the compound inhibiting growth of the isolates. First the MICs of CHG and PD, respectively, were determined for each micro-organism. Then, a range of combined CHG and PD concentrations were tested on each micro-organism to determine if there was synergistic activity. The definition of synergistic effect is: “An effect that is greater than the sum of the effects of the two drugs, such as the equation: 1+1 . . . ”. Each isolate was tested twice.

S. pyogenes A CCUG 4208 = test: MIC on blood agar plates against S. pyogenes A CCUG 4208; set-up: key: +++: Same growth as on the control plate without any chlorhexidine and/or pentane-1,5-diol; ++: Reduced growth compared to the control; +: Very poor growth; −: No growth
Experimental: The minimal inhibitory concentration (MIC) of pentane-1,5-diol combined with chlorhexidine against S. pyogenes A CCUG 4208 was determined using bacteria concentrations of 6×10^7 (20 μl applicated onto blood agar plates). The results are depicted below in table 7 and 8.

P. acnes = test: MIC on blood agar plates against P. acnes; set-up: key: +++: Same growth as on the control plate without any chlorhexidine and/or pentane-1,5-diol; ++: Reduced growth compared to the control; +: Very poor growth; −: No growth
Experimental: The minimal inhibitory concentration (MIC) of pentane-1,5-diol and chlorhexidine against P. acnes was determined using bacteria concentrations of 6×10^6 (20 μl applicated onto blood agar plates). The results are depicted below in table 4 and 5.
The minimal inhibitory concentration (MIC) of pentane-1,5-diol combined with chlorhexidine against P. acnes was determined using bacteria concentrations of 6×10^6 (20 μl applicated onto blood agar plates).

C. albicans (CCUG 5594) = test: MIC by agar dilution assay, C. albicans
Experimental: as §1

S. aureus (CCUG 17621) = test: MIC by agar dilution assay, S. aureus
Experimental: as §1

S. aureus = test: MIC on DST-agar plates against S. aureus; set-up: key: +++: Same growth as on the control plate without any chlorhexidine and/or pentane-1,5-diol; ++: Reduced growth compared to the control; +: Very poor growth; −: No growth
Experimental: The minimal inhibitory concentration (MIC) of pentane-1,5-diol and chlorhexidine against S. aureus was determined using bacteria concentrations of 6×10^6 (20 μl applicated onto DST-agar plates). The results are depicted below in table 1 and 2.
The minimal inhibitory concentration (MIC) of pentane-1,5-diol combined with chlorhexidine against S. aureus was determined using bacteria concentrations of 6×10^6 (20 μl applicated onto DST-agar plates).

[1] = P. acnes CCUG1794, agar dilution
[2] = C. albicans CCUG5594, agar dilution
[3] = S. aureus CCUG17621, agar dilution
[4] = growth grade at pentane-1,5-diol 5 wt %
[5] = growth grade at pentane-1,5-diol 6 wt %
[6] = growth grade at pentane-1,5-diol 7 wt %
[7] = growth grade at pentane-1,5-diol 10 wt %
[8] = growth grade at pentane-1,5-diol 20 wt %
[9] = growth grade at pentane-1,5-diol 30 wt %

[H]/N=C(\N/C(=N/[H])NCCCCCCNC(=N)NC(=N)Nc1ccc(Cl)cc1)Nc1ccc(Cl)cc1 [Chlorhexidine, chlorhexidine digluconate]
factor by which MIC of CHG was lower than PD (P. acnes (CCUG 1794); P. acnes): 9×10^−5 | MIC combined CHG (P. acnes (CCUG 1794); P. acnes CCUG1794, CHG in combination with PD 3 v/v %): 0.00005 w/v % | MIC alone CHG (P. acnes (CCUG 1794); [1]): 0.0001 w/v % | Ratio (alone/combined) CHG/CHG + PD (P. acnes (CCUG 1794); P. acnes CCUG1794, reduction of the MIC of CHG): 2 | growth grade (S. pyogenes A CCUG 4208; growth grade at chlorhexidine digluconate 0.00001 %): +++ | growth grade (S. pyogenes A CCUG 4208; growth grade at chlorhexidine digluconate 0.00005 %): +++ | growth grade (S. pyogenes A CCUG 4208; growth grade at chlorhexidine digluconate 0.0001 %): + | growth grade (S. pyogenes A CCUG 4208; growth grade at chlorhexidine digluconate 0.0005 %): − | growth grade (S. pyogenes A CCUG 4208; growth grade at chlorhexidine digluconate 0.001 %): − | growth grade (S. pyogenes A CCUG 4208; growth grade at chlorhexidine digluconate 0.005 %): − | growth grade (S. pyogenes A CCUG 4208; growth grade at chlorhexidine digluconate 0.01 %): − | growth grade (S. pyogenes A CCUG 4208; growth grade at chlorhexidine digluconate 0.05 %): − | growth grade (S. pyogenes A CCUG 4208; growth grade at chlorhexidine digluconate 0.1 %): − | growth grade (S. pyogenes A CCUG 4208; growth grade at chlorhexidine digluconate 0.5 %): − | growth grade (P. acnes; growth grade at chlorhexidine 0.00001 wt %): +++ | growth grade (P. acnes; growth grade at chlorhexidine 0.00005 wt %): ++ | growth grade (P. acnes; growth grade at chlorhexidine 0.0001 wt %): − | growth grade (P. acnes; growth grade at chlorhexidine 0.0005 wt %): − | growth grade (P. acnes; growth grade at chlorhexidine 0.001 wt %): − | growth grade (P. acnes; growth grade at chlorhexidine 0.005 wt %): − | growth grade (P. acnes; growth grade at chlorhexidine 0.01 wt %): − | growth grade (P. acnes; growth grade at chlorhexidine 0.02 wt %): − | growth grade (P. acnes; growth grade at chlorhexidine 0.05 wt %): − | growth grade (P. acnes; growth grade at chlorhexidine 0.1 wt %): − | growth grade (P. acnes; growth grade at chlorhexidine 0.5 wt %): − | growth grade (P. acnes; growth grade at chlorhexidine 1 wt %): − | factor by which MIC of CHG was lower than PD (C. albicans (CCUG 5594); C. albicans): 1×10^−4 | MIC combined CHG (C. albicans (CCUG 5594); C. albicans CCUG5594, CHG in combination with PD 3 v/v %): 0.00005 w/v % | MIC alone CHG (C. albicans (CCUG 5594); [2]): 0.0005 w/v % | Ratio (alone/combined) CHG/CHG + PD (C. albicans (CCUG 5594); C. albicans CCUG5594, reduction of the MIC of CHG): 10 | factor by which MIC of CHG was lower than PD (S. aureus (CCUG 17621); S. aureus): 6×10^−5 | MIC combined CHG (S. aureus (CCUG 17621); S. aureus CCUG17621, CHG in combination with PD 8 v/v %): 0.00001 w/v % | MIC alone CHG (S. aureus (CCUG 17621); [3]): 0.0001 w/v % | Ratio (alone/combined) CHG/CHG + PD (S. aureus (CCUG 17621); S. aureus CCUG17621, reduction of the MIC of CHG): 10 | bacterial growth grade (S. aureus; S. aureus, growth grade at chlorhexidine 0.00001 wt %): +++ | bacterial growth grade (S. aureus; S. aureus, growth grade at chlorhexidine 0.00005 wt %): ++ | bacterial growth grade (S. aureus; S. aureus, growth grade at chlorhexidine 0.0001 wt %): − | bacterial growth grade (S. aureus; S. aureus, growth grade at chlorhexidine 0.0005 wt %): − | bacterial growth grade (S. aureus; S. aureus, growth grade at chlorhexidine 0.001 wt %): − | bacterial growth grade (S. aureus; S. aureus, growth grade at chlorhexidine 0.005 wt %): − | bacterial growth grade (S. aureus; S. aureus, growth grade at chlorhexidine 0.01 wt %): − | bacterial growth grade (S. aureus; S. aureus, growth grade at chlorhexidine 0.02 wt %): − | bacterial growth grade (S. aureus; S. aureus, growth grade at chlorhexidine 0.05 wt %): − | bacterial growth grade (S. aureus; S. aureus, growth grade at chlorhexidine 0.1 wt %): − | bacterial growth grade (S. aureus; S. aureus, growth grade at chlorhexidine 0.5 wt %): − | bacterial growth grade (S. aureus; S. aureus, growth grade at chlorhexidine 1 wt %): −

OCCCCCO [Pentane-1,5-diol, pentane-1,5-diol]
MIC combined PD (P. acnes (CCUG 1794); P. acnes CCUG1794, PD in combination with CHG 0.00005 w/v %): 3 v/v % | MIC alone PD (P. acnes (CCUG 1794); [1]): 6 v/v % | Ratio (alone/combined) PD/PD + CHG (P. acnes (CCUG 1794); P. acnes CCUG1794, reduction of the MIC of PD): 2 | growth grade (S. pyogenes A CCUG 4208; growth grade at 1,5-pentanediol 2 %): +++ | growth grade (S. pyogenes A CCUG 4208; growth grade at 1,5-pentanediol 4 %): ++ | growth grade (S. pyogenes A CCUG 4208; growth grade at 1,5-pentanediol 6 %): + | growth grade (S. pyogenes A CCUG 4208; growth grade at 1,5-pentanediol 7 %): − | growth grade (S. pyogenes A CCUG 4208; growth grade at 1,5-pentanediol 8 %): − | growth grade (S. pyogenes A CCUG 4208; growth grade at 1,5-pentanediol 9 %): − | growth grade (S. pyogenes A CCUG 4208; growth grade at 1,5-pentanediol 10 %): − | growth grade (S. pyogenes A CCUG 4208; growth grade at 1,5-pentanediol 15 %): − | growth grade (P. acnes; growth grade at pentane-1,5-diol 1 wt %): +++ | growth grade (P. acnes; growth grade at pentane-1,5-diol 3 wt %): ++ | growth grade (P. acnes; [4]): + | growth grade (P. acnes; [5]): − | growth grade (P. acnes; [6]): − | growth grade (P. acnes; [7]): − | growth grade (P. acnes; [8]): − | growth grade (P. acnes; [9]): − | MIC combined PD (C. albicans (CCUG 5594); C. albicans CCUG5594, PD in combination with CHG 0.00005 w/v %): 3 v/v % | MIC alone PD (C. albicans (CCUG 5594); [2]): 5 v/v % | Ratio (alone/combined) PD/PD + CHG (C. albicans (CCUG 5594); C. albicans CCUG5594, reduction of the MIC of PD): 2 | MIC combined PD (S. aureus (CCUG 17621); S. aureus CCUG17621, PD in combination with CHG 0.00001 w/v %): 8 v/v % | MIC alone PD (S. aureus (CCUG 17621); [3]): 9 v/v % | Ratio (alone/combined) PD/PD + CHG (S. aureus (CCUG 17621); S. aureus CCUG17621, reduction of the MIC of PD): 1 | bacterial growth grade (S. aureus; [4]): +++^a | bacterial growth grade (S. aureus; [5]): ++ | bacterial growth grade (S. aureus; [6]): ++ | bacterial growth grade (S. aureus; growth grade at pentane-1,5-diol 8 wt %): + | bacterial growth grade (S. aureus; growth grade at pentane-1,5-diol 9 wt %): − | bacterial growth grade (S. aureus; [7]): − | bacterial growth grade (S. aureus; [8]): − | bacterial growth grade (S. aureus; [9]): −
